# Data: EPA's ToxRefDB 2
# Legend:
# [1] = system: rat; settings: Combined chronic toxicity/carcinogenicity, fischer, Oral, Gavage/Intubation, dose end: 103 week, group: systemic
# [2] = system: rat; settings: Subchronic oral toxicity in rodents, fischer, Gavage/Intubation, dose end: 13 week, group: systemic
# [3] = system: mouse; settings: Subchronic oral toxicity in rodents, b6c3f1, Gavage/Intubation, dose end: 13 week, group: systemic
# [4] = system: dog; settings: Sub-acute repeat dose toxicity, beagle, Oral, Capsule, dose end: 1 month, group: systemic
# [5] = system: dog; settings: Subchronic oral toxicity in nonrodent, beagle, Capsule, dose end: 3 month, group: systemic, systemic / clinical chemistry / alanine aminotransferase (alt/sgpt) / alanine aminotransferase (alt/sgpt) + systemic / clinical chemistry / …
# [6] = system: rat; settings: Fertility (Segment I), sprague dawley, Oral, Gavage/Intubation, dose end: 7 GD
# [7] = system: mouse; settings: Sub-acute repeat dose toxicity, cd1, Oral, Gavage/Intubation, dose end: 1 month, group: systemic
# [8] = system: rat; settings: Sub-acute repeat dose toxicity; sprague dawley; Oral; Gavage/Intubation; dose end: 1 month; group: systemic; systemic / hematology / blood clotting / blood clotting - prothrombin time + systemic / hematology / platelet / platelet + systemic / organ …
# [9] = system: rat; settings: Prenatal developmental toxicity study, sprague dawley, Oral, Gavage/Intubation, dose end: 17 GD
# [10] = system: rat; settings: Sub-acute repeat dose toxicity, sprague dawley, Oral, Gavage/Intubation, dose end: 1 month
# [11] = system: rat; settings: Prenatal developmental toxicity study, sprague dawley, Oral, Gavage/Intubation, dose end: 17 GD, group: maternal
# [12] = system: rat; settings: Fertility (Segment I), sprague dawley, Oral, Gavage/Intubation, dose end: 7 GD, group: parental
# [13] = system: rat; settings: Chronic toxicity; sprague dawley; Oral; Gavage/Intubation; dose end: 6 month; group: systemic; systemic / clinical chemistry / chloride / chloride + systemic / clinical chemistry / sodium / sodium + systemic / hematology / hematocrit (…
# [14] = system: rabbit; settings: Prenatal developmental toxicity study, new zealand white, Oral, Gavage/Intubation, dose end: 19 GD
# [15] = system: mouse; settings: Subchronic oral toxicity in rodents, cd1, Gavage/Intubation, dose end: 3 month, group: systemic
# [16] = systemic / pathology microscopic / liver / cytologic alterations + systemic / pathology microscopic / liver / hyperplasia
# [17] = systemic / pathology microscopic / liver / cytologic alterations + systemic / pathology microscopic / liver / hyperplasia + systemic / …
# [18] = systemic / in life observation / body weight / body weight + systemic / in life observation / clinical signs / lethargy + systemic / in life…
# [19] = systemic / in life observation / body weight / body weight
# [20] = systemic / in life observation / body weight / body weight + systemic / in life observation / clinical signs / altered breathing rate + …
# [21] = systemic / clinical chemistry / alkaline phosphatase (alp/alk) / alkaline phosphatase (alp/alk) + systemic / clinical chemistry / …
# [22] = systemic / clinical chemistry / lipids / phospholipids + systemic / pathology gross / liver / [other] + systemic / clinical chemistry / …
# [23] = group: maternal, reproductive / reproductive performance / implantations / implantations + reproductive / reproductive performance / preimplantation loss / …
# [24] = group: parental, systemic / in life observation / body weight / body weight gain
# [25] = group: parental, systemic / in life observation / body weight / body weight gain + systemic / in life observation / clinical signs / body surface staining + …
# [26] = systemic / in life observation / body weight / body weight gain + systemic / in life observation / clinical signs / drooping eyelids (ptosis…
# [27] = systemic / in life observation / body weight / body weight gain + systemic / in life observation / clinical signs / piloerection + systemic…
# [28] = group: developmental, systemic / in life observation / body weight / fetal weight
# [29] = group: maternal, reproductive / reproductive performance / preimplantation loss / preimplantation loss + systemic / in life observation / body weight / body …
# [30] = group: maternal, systemic / in life observation / body weight / body weight gain + systemic / in life observation / clinical signs / piloerection + systemic…
# [31] = group: maternal, reproductive / reproductive performance / estrous cycle / abnormal
# [32] = group: systemic, systemic / clinical chemistry / cholesterol / cholesterol + systemic / clinical chemistry / globulins / globulins + systemic / clinical …
# [33] = group: systemic, systemic / urinalysis / specific gravity/osmolality / specific gravity/osmolality + systemic / urinalysis / volume / volume
# [34] = systemic / in life observation / body weight / body weight gain + systemic / in life observation / food consumption / food consumption
# [35] = systemic / in life observation / body weight / body weight gain + systemic / in life observation / food consumption / food consumption + …
# [36] = systemic / in life observation / clinical signs / body surface staining
# [37] = group: maternal, reproductive / reproductive performance / postimplantation loss / postimplantation loss + reproductive / reproductive performance / …
# [38] = group: maternal, systemic / in life observation / clinical signs / defecation
# [39] = systemic / clinical chemistry / cholesterol / cholesterol + systemic / clinical chemistry / bilirubin / total bilirubin + systemic / organ …
# [40] = systemic / organ weight / liver / absolute + systemic / organ weight / liver / relative to body weight + systemic / organ weight / spleen / …
compound,measurement,setting,value
COC(N)=O [Methyl carbamate],LOAEL,[1]; [16],100 mg/kg/day
same,NOAEL,[1]; [16],< 100 mg/kg/day
same,LEL,[1]; [17],100 mg/kg/day
same,NEL,[1]; [17],< 100 mg/kg/day
same,LOAEL,[2]; [18],> 800 mg/kg/day
same,NEL,[2]; [18],200 mg/kg/day
same,NOAEL,[2]; [18],≥ 800 mg/kg/day
same,LEL,[2]; systemic / in life observation / body weight / body weight + systemic / in life observation / clinical signs / lethargy + systemic / organ …,400 mg/kg/day
same,LEL,[3]; [19],125 mg/kg/day
same,NEL,[3]; [19],< 125 mg/kg/day
same,LOAEL,[3]; [20],> 1500 mg/kg/day
same,NOAEL,[3]; [20],≥ 1500 mg/kg/day
COc1ccc(S(=O)(=O)N2C(=O)[C@@](c3ccccc3OC)(N3C[C@H](O)C[C@H]3C(=O)N(C)C)c3cc(Cl)ccc32)c(OC)c1 [Nelivaptan],LOAEL,[4]; [21],200 mg/kg/day
same,NOAEL,[4]; [21],50 mg/kg/day
same,LEL,[4]; [22],50 mg/kg/day
same,NEL,[4]; [22],< 50 mg/kg/day
same,LEL,[5],100 mg/kg/day
same,LOAEL,[5],100 mg/kg/day
same,NEL,[5],25 mg/kg/day
same,NOAEL,[5],25 mg/kg/day
same,LEL,[6]; [23],750 mg/kg/day
same,LOAEL,[6]; [23],750 mg/kg/day
same,NEL,[6]; [23],600 mg/kg/day
same,NOAEL,[6]; [23],600 mg/kg/day
same,LEL,[6]; [24],100 mg/kg/day
same,NEL,[6]; [24],< 100 mg/kg/day
same,LOAEL,[6]; [25],750 mg/kg/day
same,NOAEL,[6]; [25],600 mg/kg/day
same,LOAEL,[7]; [26],> 4000 mg/kg/day
same,NOAEL,[7]; [26],≥ 4000 mg/kg/day
same,LEL,[7]; [27],1000 mg/kg/day
same,NEL,[7]; [27],< 1000 mg/kg/day
same,LEL,[8],25 mg/kg/day
same,LOAEL,[8],> 200 mg/kg/day
same,NEL,[8],< 25 mg/kg/day
same,NOAEL,[8],≥ 200 mg/kg/day
same,LEL,[9]; [28],750 mg/kg/day
same,LOAEL,[9]; [28],750 mg/kg/day
same,NEL,[9]; [28],300 mg/kg/day
same,NOAEL,[9]; [28],300 mg/kg/day
same,LOAEL,[9]; [29],> 1500 mg/kg/day
same,NOAEL,[9]; [29],≥ 1500 mg/kg/day
same,LEL,[9]; [30],300 mg/kg/day
same,NEL,[9]; [30],< 300 mg/kg/day
same,LEL,[10]; [31],800 mg/kg/day
same,LOAEL,[10]; [31],> 800 mg/kg/day
same,NEL,[10]; [31],200 mg/kg/day
same,NOAEL,[10]; [31],≥ 800 mg/kg/day
same,LOAEL,[10]; [32],200 mg/kg/day
same,NOAEL,[10]; [32],50 mg/kg/day
same,LEL,[10]; [33],50 mg/kg/day
same,NEL,[10]; [33],< 50 mg/kg/day
same,LEL,[11]; [34],150 mg/kg/day
same,NEL,[11]; [34],< 150 mg/kg/day
same,LOAEL,[11]; [35],> 750 mg/kg/day
same,NOAEL,[11]; [35],≥ 750 mg/kg/day
same,LOAEL,[12]; [34],750 mg/kg/day
same,NOAEL,[12]; [35],450 mg/kg/day
same,LEL,[12]; [36],150 mg/kg/day
same,NEL,[12]; [36],< 150 mg/kg/day
same,LEL,[13],25 mg/kg/day
same,LOAEL,[13],25 mg/kg/day
same,NEL,[13],< 25 mg/kg/day
same,NOAEL,[13],< 25 mg/kg/day
same,LEL,[14]; [28],2000 mg/kg/day
same,LOAEL,[14]; [28],> 2000 mg/kg/day
same,NEL,[14]; [28],1000 mg/kg/day
same,NOAEL,[14]; [28],≥ 2000 mg/kg/day
same,LOAEL,[14]; [37],1000 mg/kg/day
same,NOAEL,[14]; [37],500 mg/kg/day
same,LEL,[14]; [38],250 mg/kg/day
same,NEL,[14]; [38],< 250 mg/kg/day
same,LOAEL,[15]; [39],1000 mg/kg/day
same,NOAEL,[15]; [39],500 mg/kg/day
same,LEL,[15]; [40],500 mg/kg/day
same,NEL,[15]; [40],< 500 mg/kg/day
